Several values for one entry are separate records, joined by “and”; a condition that tells them apart may be missing. Identical values can stand only once.
Tests used:
prostacyclin = settings: background statement; PGH2 diversion to PGI2 when TxA2 synthesis is blocked; cited from earlier work
Thromboxane Synthetase = target: T1, Thromboxane Synthetase (Homo sapiens, UniProt P24557); assay: Inhibition of ADP-induced human platelet aggregation (PRP + pig aortic microsomes) as measure of thromboxane synthetase inhibition; assay type: cell-based
T1 construct: Human platelet-rich plasma preparation; endogenous in cells; host or cells: human platelets in citrated platelet-rich plasma
T1 sequence (P24557 1-533): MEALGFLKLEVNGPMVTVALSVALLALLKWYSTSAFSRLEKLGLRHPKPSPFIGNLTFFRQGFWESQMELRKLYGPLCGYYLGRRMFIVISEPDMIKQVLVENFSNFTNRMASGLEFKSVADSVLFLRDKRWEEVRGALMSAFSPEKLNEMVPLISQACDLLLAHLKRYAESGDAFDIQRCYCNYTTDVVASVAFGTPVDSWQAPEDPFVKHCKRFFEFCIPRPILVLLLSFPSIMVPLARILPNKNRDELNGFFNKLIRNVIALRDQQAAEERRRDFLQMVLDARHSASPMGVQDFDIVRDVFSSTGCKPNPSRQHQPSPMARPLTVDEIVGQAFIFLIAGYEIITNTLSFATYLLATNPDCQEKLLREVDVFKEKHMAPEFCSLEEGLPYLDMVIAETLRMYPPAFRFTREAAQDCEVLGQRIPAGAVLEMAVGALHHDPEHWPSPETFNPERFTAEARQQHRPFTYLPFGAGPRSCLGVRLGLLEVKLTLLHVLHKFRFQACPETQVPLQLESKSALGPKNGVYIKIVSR
Description: Platelet Aggregation Inhibition
Comparison of 2-(3-pyridylmethyl)naphthalene-6-carboxylic acid and 2-(3-pyridylmethyl)naphthalene-7-carboxylic acid.
Platelet Aggregation Inducer: ADP
Determination of Inhibition and Thromboxane Synthetase Activity Utilizing Human Platelet Aggregation
Human platelet-rich plasma preparation:
Blood sample is collected into siliconized vacutainers containing sodium citrate (0.5 ml of 11.25% sodium citrate per 15 ml vacutainer) final concentration 0.38%. Platelet rich plasma (PRP) is obtained after centrifuging the blood for 15 minutes at 200 xg at room temperature. Blood and plasma contacts only non-wettable plastic or siliconized glass surfaces. Procedure:
1. Aggregation is followed by the turbidimetric method of Born (J. Physiol. 162, 67p, 1962), using a Payton Dual Channel Aggregometer.
2. PRP-PAM control. 1.0 ml PRP is used. Pig aortic microsomes (PAM), prepared according to Neichi, et al. (Prostaglandins, 19(4), 577-86 (1980)), are incubated in PRP at 37° C. with stirring for 3 minutes, immediately followed by addition of inducer-ADP. The concentration of PAM is chosen to show little or no inhibition of platelet aggregation when compared with the aggregation of PRP alone.
3. PRP-PAM plus thromboxane synthetase inhibitor.
Thromboxane synthetase inhibitor is added to 1.0 ml PRP incubated at 37° C. with stirring for two minutes. The PAM concentration is chosen according to step 2, and is added to PRP incubated at 37° C. with stirring for another 3 minutes. The inducer ADP is added immediately afterwards.

[1] = 1 × 10^-4 M, inducer ADP 5×10^-6 M, solvent water
[2] = 2 × 10^-5 M, inducer ADP 5×10^-6 M, solvent water
[3] = 5 × 10^-4 M, inducer ADP 5×10^-6 M, solvent water
[4] = 5 × 10^-6 M, inducer ADP 5×10^-6 M, solvent water
[5] = 1.0 × 10^-7 M, inducer ADP 5×10^-6 M, solvent water
[6] = 5.0 × 10^-5 M, inducer ADP 5×10^-6 M, solvent water
[7] = 5.0 × 10^-7 M, inducer ADP 5×10^-6 M, solvent water

**Q.** For `O=C(O)c1ccc(OCCn2ccnc2)cc1` [dazoxiben], which “levels of prostacyclin produced” value (prostacyclin) is on record?
**A.** Its value is “quite low”.

**Q.** Which inhibition at 100 µM (Thromboxane Synthetase; [1]) does the source give for `O=C(O)c1ccc2ccc(Cc3cccnc3)cc2c1` [2-(3-pyridylmethyl)naphthalene-7-carboxylic acid, reference compound] here?
**A.** Its inhibition at 100 µM is 88.8%.

**Q.** What about the inhibition at 20 µM (Thromboxane Synthetase; [2]) of the same molecule?
**A.** The inhibition at 20 µM was 47.9%.

**Q.** What about the inhibition at 500 µM (Thromboxane Synthetase; [3]) of the same molecule?
**A.** The inhibition at 500 µM was 92.8%.

**Q.** And the inhibition at 5 µM (Thromboxane Synthetase; [4])?
**A.** Its inhibition at 5 µM is 18.2%.

**Q.** And the IC50 (Thromboxane Synthetase; platelet aggregation inhibition, inducer ADP 5×10^-6 M, solvent water)?
**A.** Its IC50 is 21 µM.

**Q.** With `O=C(O)c1ccc2cc(Cc3cccnc3)ccc2c1` [2-(3-pyridylmethyl)naphthalene-6-carboxylic acid] as the molecule, how does the “% Inhibition” value (Thromboxane Synthetase; [1]) read?
**A.** Its value is 85.2%.

**Q.** What about the inhibition at 100 µM (Thromboxane Synthetase; [1]) of the same molecule?
**A.** Its inhibition at 100 µM is 98.3%.

**Q.** What about the “% Inhibition” value (Thromboxane Synthetase; [5]) of the same molecule?
**A.** Its value is 29.3 ± 3.7%.

**Q.** And the inhibition at 0.1 µM (Thromboxane Synthetase; [5])?
**A.** The inhibition at 0.1 µM was 47 ± 5.2%.

**Q.** And the inhibition at 0.01 µM (Thromboxane Synthetase; 1.0 × 10^-8 M, inducer ADP 5×10^-6 M, solvent water)?
**A.** The inhibition at 0.01 µM was 4.7%.

**Q.** What about the “% Inhibition” value (Thromboxane Synthetase; [2]) of the same molecule?
**A.** Its value is 97.4 ± 1.3%.

**Q.** What about the inhibition at 20 µM (Thromboxane Synthetase; [2]) of the same molecule?
**A.** Its inhibition at 20 µM is 90.9 ± 1.3%.

**Q.** What about the “% Inhibition” value (Thromboxane Synthetase; 2 × 10^-7 M, inducer ADP 5×10^-6 M, solvent water) of the same molecule?
**A.** The value was 58.7 ± 9.2% and 97.1 ± 1.9%.

**Q.** And the inhibition at 0.02 µM (Thromboxane Synthetase; 2.0 × 10^-8 M, inducer ADP 5×10^-6 M, solvent water)?
**A.** The inhibition at 0.02 µM was 1.6%.

**Q.** And the “% Inhibition” value (Thromboxane Synthetase; [3])?
**A.** Its value is 87.3%.

**Q.** What about the inhibition at 500 µM (Thromboxane Synthetase; [3]) of the same molecule?
**A.** Its inhibition at 500 µM is 96.6%.

**Q.** And the “% Inhibition” value (Thromboxane Synthetase; [6])?
**A.** Its value is 86.5 ± 2.2%.

**Q.** And the inhibition at 50 µM (Thromboxane Synthetase; [6])?
**A.** Its inhibition at 50 µM is 86.8 ± 1.8%.

**Q.** And the “% Inhibition” value (Thromboxane Synthetase; [4])?
**A.** The value was 100.0% and 85.1 ± 4.1% and 85.3 ± 5.5%.

**Q.** What about the inhibition at 5 µM (Thromboxane Synthetase; [4]) of the same molecule?
**A.** The inhibition at 5 µM was 88.7 ± 3.5%.

**Q.** And the “% Inhibition” value (Thromboxane Synthetase; [7])?
**A.** The value was 75.8 ± 3.5%.

**Q.** What about the inhibition at 0.5 µM (Thromboxane Synthetase; [7]) of the same molecule?
**A.** The inhibition at 0.5 µM was 78.3%.

**Q.** What about the “greater activity as a thromboxane synthetase inhibitor by a factor” value (Thromboxane Synthetase; factor relative to 2-(3-pyridylmethyl)-naphthalene-7-carboxylic acid) of the same molecule?
**A.** Its value is “about 200”.
